For one data set, the target named is P-gp (Homo sapiens, UniProt P08183). Kind of data set: P-gp-ATPase activity (P-gp-Glo assay). More on the design: purchased Promega. It counts as biochemical. The procedure:
N = 2–3 independent experiments. […] After incubation, the cells were lysed and spun down. […] N = 2–6 independent experiments. […] A 1% DMSO was a solvent control. […] N = 2–3 independent experiments.
P-gp-ATPase activity was measured by a P-gp-Glo assay system (Promega) with a human P-gp membrane, as reported previously. […] The reaction was initiated by the addition of MgATP and incubated at 37 °C for 1 h. After adding the ATP detection reagent, the sample was incubated at room temperature for 20 min before measuring the remaining ATP signal of luminescence by a Clariostar microplate reader (BMG Labtech). Vanadate-inhibitable P-gp ATPase activity was determined by calculating the luminescence signal in the samples with or without sodium vanadate.

A further data set relates to LCC6MDR. The data set is described as follows: Cytotoxicity assay (MTS, 3 days), LCC6MDR. The format is cell-based, human. The settings on record: at 61 nM to 153 nM. The protocol: (§1) To each well of 96-well plate, 10,000 cells of LCC6, LCC6MDR or L929 were incubated with different concentrations of FM04 (0, 0.4, 1.2, 3.7, 11, 33 and 100 μM). The final volume in each well of 96-well plate was 100 μL and the plate was incubated for 3 days at 37 °C. The cell viability was determined using MTS assay as reported previously.

The nature of data set [1]: Cytotoxicity assay (MTS, 3 days), LCC6MDR. It counts as cell-based, human. As to conditions: human, LCC6MDR cells. The protocol:
as §1

The nature of data set [2]: In vivo monitoring of FD18 and its metabolites in plasma after I.V. FD18. The arrangement: species or system SD rats. The settings on record: after FD18 5 mg/kg I.V. The procedure: Figure 3 Proposed metabolism pathway of FD18 and its metabolites formed in vivo. (A) metabolism study of FD18 was conducted on human liver microsomes (HLM) and rat liver microsomes (RLM) in vitro. Chemical structure of the 3 metabolites was predicted by LC/QTOF-MS/MS and confirmed by the synthetic compounds (Figure 2E–J). The pathways for biotransformation of FD18 into FM04 was proposed. (B) plasma concentration profile of FD18 and the in vivo formation of metabolites M1, M2 and M3. After I.V. injection of FD18 (5 mg/kg) into […], plasma was collected at 10, 30, 60, 120, 240, 420 and 600 min, respectively. The concentration of FD18 at each time point was determined by UPLC-MS/MS. Its plasma concentration was further quantified with peak area ratio of FD18 against D7-18. […] In vivo formation of metabolites M1, M2 and M3 were monitored and quantified by UPLC-MS/MS with corresponding calibration curve of 14a, FM04 and FM327. Pharmacokinetic parameter AUC was calculated by the pharmacokinetic software-Summit® PK solutions 2.0 (Summit Research Service, Ashland, Wilmington, DE, USA).
FD18 stock solution was freshly prepared in 33% Cremophor EL, 33% ethanol and 33% saline at a concentration of 9.5 mg/mL. FD18 stock solution was then diluted with saline to form a 4 mg/mL working solution for animal injection. SD rats were intravenously (I.V.) administered with FD18 at 5 mg/kg (n = 3). Blood samples (approx. 300 μL) were taken via jugular vein at 10, 30, 60, 120, 240 and 420 min post-administration. Blood samples were centrifuged at 16,100× g for 10 min to obtain plasma. Plasma samples (50 µL) were spiked with 15 μL of internal standard (IS) (D7-NBn, 10 μg/mL). Two hundred microliter of methanol was added for protein precipitation. Samples were centrifuged at 16,100× g for 10 min prior to filtering by 0.22 μm syringe filter for UPLC-MSMS analysis.
The UPLC-MS/MS system consists of an Agilent 1260 infinity UPLC interfaced with a triple quadrupole mass spectrometer (Agilent 6460) equipped with an electrospray ionization source in positive mode. Zorbax Eclipse XDB-C8 (4.6 × 150 mm, 5 µM) was used for separation. The mobile phase for chromatographic separation consisted of methanol + 0.1% formic acid (solvent B) and Milli-Q water + 0.1% formic acid (solvent A) with gradient elution of 30% solvent B to 100% solvent B in 5 min. The elution condition was allowed for equilibrium from the 7th min onward. The analysis time for each injection was 13 min. The flow rate was 0.4 mL/min. The synthetic compound D7-NBn, the deuterated benzyl form of FD18, was used as the internal standard (IS) for the quantification of the three metabolites. Multiple reaction monitoring (MRM) was set to monitor the transitions of D7-NBn [M+H]^+, FD18 [M+H]^+, M1 [M+H]^+, M2 [M+H]^+ and M3 [M+H]^+ at 731.01 > 98.1 m/z, 724.01 > 91.1 m/z, 634.01 > 114 m/z, 416.01 > 91.1 m/z and 327.01 > 239 m/z, respectively. The coefficient of determination (R^2) for 14a, FM04 and FM327 were above 0.99. The dynamic range for the metabolites in the current setting is 78 ng/mL to 2.44 ng/mL.

Data set [3] has as its system human melanoma MDA435/LCC6 xenograft. Kind of data set: In vivo efficacy of oral co-administration in human melanoma MDA435/LCC6 xenograft. The settings on record: PTX 12 mg/kg I.V., (q1d × 4) × 2 rounds.
Experimental: The treatment was given daily four times and two rounds on days 0, 1, 2, 3, 6, 7, 8 and 9 [(q1d × 4) × 2 rounds].
The treatment was given to mice every day for 4 times and 2 rounds [(q1d × 4) x 2 rounds] and indicated as an arrow.
LCC6 cells at 1 × 10^6 were injected intraperitoneally (I.P.) to allow ascite development for cell adaptation in vivo. Aspirated ascite was then injected S. C. to nude mice for the development of solid tumors as stock. These solid tumors were excised and trimmed into 1 mm^3 cubes for constructing subsequent S.C. xenografts. The study begun when these xenografts were confirmed to bear a tumor at 100–120 mm^3. FM04 (22 or 45 mg/kg) was co-administered orally with PTX (40, 60, 70 or 80 mg/kg). The treatment schedule was set to once a day for four times in two cycles (q1d × 4, 2 cycles). Tumor volume and body weight changes were monitored throughout the experiment. Animals with a body weight loss > 15% during treatment for more than 3 consecutive days were considered to be treatment-induced toxicity. All animals were sacrificed on day 30. Statistical analysis was performed by using one-way ANOVA (*, p < 0.05; **, p < 0.01; ***, p < 0.001).

P-gp, sequence (P08183 whole entry): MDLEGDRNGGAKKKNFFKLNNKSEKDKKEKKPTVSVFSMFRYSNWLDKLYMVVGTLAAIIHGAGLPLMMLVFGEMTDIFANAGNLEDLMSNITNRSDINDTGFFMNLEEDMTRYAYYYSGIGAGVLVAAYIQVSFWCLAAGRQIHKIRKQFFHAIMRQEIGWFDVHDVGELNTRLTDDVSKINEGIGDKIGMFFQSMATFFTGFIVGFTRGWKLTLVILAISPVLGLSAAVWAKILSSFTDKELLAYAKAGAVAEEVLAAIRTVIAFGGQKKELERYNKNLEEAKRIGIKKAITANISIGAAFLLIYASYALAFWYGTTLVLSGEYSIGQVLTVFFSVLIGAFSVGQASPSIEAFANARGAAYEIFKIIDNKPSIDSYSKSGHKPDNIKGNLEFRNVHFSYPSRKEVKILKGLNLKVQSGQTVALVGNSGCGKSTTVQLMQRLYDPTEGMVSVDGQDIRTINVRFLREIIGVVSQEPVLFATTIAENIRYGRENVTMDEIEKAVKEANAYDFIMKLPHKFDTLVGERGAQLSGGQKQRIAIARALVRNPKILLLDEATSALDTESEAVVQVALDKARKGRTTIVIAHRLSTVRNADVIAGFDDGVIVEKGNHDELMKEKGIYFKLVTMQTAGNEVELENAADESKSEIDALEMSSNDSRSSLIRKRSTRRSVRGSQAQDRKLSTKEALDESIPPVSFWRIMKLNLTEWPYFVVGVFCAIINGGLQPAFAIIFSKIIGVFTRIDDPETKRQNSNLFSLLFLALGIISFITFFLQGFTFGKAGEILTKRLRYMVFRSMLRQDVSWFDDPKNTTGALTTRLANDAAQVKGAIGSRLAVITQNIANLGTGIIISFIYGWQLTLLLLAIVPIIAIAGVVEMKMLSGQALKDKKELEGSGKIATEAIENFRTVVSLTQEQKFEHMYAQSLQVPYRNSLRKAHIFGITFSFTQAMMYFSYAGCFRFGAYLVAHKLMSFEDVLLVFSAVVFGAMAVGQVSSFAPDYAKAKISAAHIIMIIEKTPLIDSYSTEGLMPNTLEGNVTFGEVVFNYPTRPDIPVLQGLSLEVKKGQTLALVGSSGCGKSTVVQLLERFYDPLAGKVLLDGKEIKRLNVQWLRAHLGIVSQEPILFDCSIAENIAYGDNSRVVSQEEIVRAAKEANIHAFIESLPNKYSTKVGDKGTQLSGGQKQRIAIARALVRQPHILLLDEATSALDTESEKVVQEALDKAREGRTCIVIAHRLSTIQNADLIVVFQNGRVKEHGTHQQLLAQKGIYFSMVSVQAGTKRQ

In the case of `O=c1cc(-c2ccc(OCCOCCNCc3ccccc3)cc2)oc2ccccc12` [FM04, 2-(4-(2-(2-(benzylamino)ethoxy)ethoxy)phenyl)-4H-chromen-4-one], at P-gp (3 μM), the “P-gp ATPase activity, fold of basal” value was 1.5 fold. In addition, the “P-gp ATPase activity, fold of basal” value at P-gp (100 μM) is reported as 3.3 fold. Also, in the data set on LCC6MDR, the “cytotoxicity of FM04 alone towards LCC6MDR cells” value is “did not exhibit cytotoxicity”. Besides, in data set [1], it took 5.7 ± 1.5 µM to reach half-maximal inhibition (IC50 at 3 days). In data set [2] (Sprague-Dawley, rat, iv), the exposure AUC(0-t) was 44.5 ng·h/mL, the Cmax worked out at 11 ng/mL and the Tmax is 1 h. Moreover, in data set [2] (listed as M2), the “Normalized AUC (systemic exposure relative to FD18)” value was 7%.

For `CC(=O)O[C@H]1C(=O)[C@@]2(C)[C@H]([C@H](OC(=O)c3ccccc3)[C@]3(O)C[C@H](OC(=O)[C@H](O)[C@@H](NC(=O)c4ccccc4)c4ccccc4)C(C)=C1C3(C)C)[C@]1(OC(C)=O)CO[C@@H]1C[C@@H]2O` [PTX, paclitaxel], the “Tumor inhibition on day 31 (%)” value in data set [3] was determined as 97%.

The record behind these values is article PMC9739180, “Discovery of a Flavonoid FM04 as a Potent Inhibitor to Reverse P-Glycoprotein-Mediated Drug Resistance in Xenografts and Improve Oral Bioavailability of Paclitaxel” (International Journal of Molecular Sciences, 2022).
